Among the data in PubChem BioAssay AID1259407 (Chemical Carcinogenesis Research Information System (CCRIS), 2018) are mutagenic call values, retold here.

The subject of the data set is CCRIS mutagenicity, Ames/micronucleus/aberration tests. Nature of the data set: CCRIS mutagenicity studies.
The mark [1] stands for this setting: Test System: AMES SALMONELLA TYPHIMURIUM, Strain/Indicator: TA98, Metabolic Activation: NONE, Method: PREINCUBATION
Setting [2] is: Test System: AMES SALMONELLA TYPHIMURIUM, Strain/Indicator: TA100, Metabolic Activation: NONE, Method: PREINCUBATION
Setting [3] is: Test System: AMES SALMONELLA TYPHIMURIUM, Strain/Indicator: TA100, Metabolic Activation: NONE, Method: STANDARD PLATE.
Where [4] appears, read: Test System: AMES SALMONELLA TYPHIMURIUM, Strain/Indicator: TA100, Metabolic Activation: RAT, LIVER, S-9, PCB, Method: PREINCUBATION

The structures appear in SMILES notation. Calls of active or inactive are those of the source. How the calls were made is not given here.

`Nc1ccc(N=Nc2ccccc2)cc1`: the mutagenic call (Test System: AMES SALMONELLA TYPHIMURIUM, Strain/Indicator: TA98, Metabolic Activation: HAMSTER, LIVER, S-9, AROCLOR 1254 (30%), Method: PREINCUBATION) is “active; positive”; the mutagenic call under setting [1] is “inactive; negative”; the mutagenic call (Test System: AMES SALMONELLA TYPHIMURIUM, Strain/Indicator: TA98, Metabolic Activation: NONE, Method: STANDARD PLATE) was “inactive; negative”; the mutagenic call (Test System: AMES SALMONELLA TYPHIMURIUM, Strain/Indicator: TA98, Metabolic Activation: RAT, LIVER, MICROSOMES, 4-AMINOAZOBENZENE, Method: PREINCUBATION) was “inactive; negative”; the mutagenic call (Test System: AMES SALMONELLA TYPHIMURIUM, Strain/Indicator: TA98, Metabolic Activation: RAT, LIVER, MICROSOMES, AROCLOR 1254, Method: PREINCUBATION) was “inactive; negative”; the mutagenic call (Test System: AMES SALMONELLA TYPHIMURIUM, Strain/Indicator: TA98, Metabolic Activation: RAT, LIVER, MICROSOMES, Method: PREINCUBATION) was “inactive; negative”. The mutagenic call (Test System: AMES SALMONELLA TYPHIMURIUM, Strain/Indicator: TA98, Metabolic Activation: RAT, LIVER, S-9, AROCLOR 1254 (30%), Method: PREINCUBATION) was “active; positive”; the mutagenic call (Test System: AMES SALMONELLA TYPHIMURIUM, Strain/Indicator: TA98, Metabolic Activation: RAT, LIVER, S-9, AROCLOR 1254, Method: STANDARD PLATE) is “active; positive”; the mutagenic call (Test System: AMES SALMONELLA TYPHIMURIUM, Strain/Indicator: TA98, Metabolic Activation: RAT, LIVER, S-9, KC500 OR PHENOBARBITAL, Method: LIQUID SUSPENSION) was “active; positive”; the mutagenic call (Test System: AMES SALMONELLA TYPHIMURIUM, Strain/Indicator: TA98, Metabolic Activation: RAT, LIVER, S-9, PCB, Method: PREINCUBATION) is “active; positive”; the mutagenic call (Test System: AMES SALMONELLA TYPHIMURIUM, Strain/Indicator: TA100, Metabolic Activation: HAMSTER, LIVER, S-9, AROCLOR 1254 (30%), Method: PREINCUBATION) is “active; positive”; the mutagenic call under setting [2] is “inactive; negative”. The mutagenic call under setting [3] was “inactive; negative”; the mutagenic call (Test System: AMES SALMONELLA TYPHIMURIUM, Strain/Indicator: TA100, Metabolic Activation: RAT, LIVER, S-9, AROCLOR 1254 (30%), Method: PREINCUBATION) is “inactive; negative”; the mutagenic call (Test System: AMES SALMONELLA TYPHIMURIUM, Strain/Indicator: TA100, Metabolic Activation: RAT, LIVER, S-9, AROCLOR 1254, Method: STANDARD PLATE) is “active; positive”; the mutagenic call (Test System: AMES SALMONELLA TYPHIMURIUM, Strain/Indicator: TA100, Metabolic Activation: RAT, LIVER, S-9, KC500 OR PHENOBARBITAL, Method: LIQUID SUSPENSION) was “active; positive”; the mutagenic call under setting [4] is “active; positive”; the mutagenic call (Test System: AMES SALMONELLA TYPHIMURIUM, Strain/Indicator: TA1538, Metabolic Activation: RAT, LIVER, S-9, AROCLOR 1254, Method: STANDARD PLATE) is “active; positive”. Moreover, the mutagenic call (Test System: UDS RODENT HEPATOCYTES, Strain/Indicator: THY INCORP (NON-S-PHASE), Method: AUTORADIOGRAPHY) is “active; positive”.
For the molecule `Cc1cccc2c1cc(C)c1c3c(ccc12)C(O)C(O)C1OC31` (centres undefined), the mutagenic call was “active; positive” under setting [2] and “active; positive” under setting [3].
On to `Cc1ccc(C)c(NO)c1`, for which the mutagenic call under setting [2] was “active; positive” and the mutagenic call under setting [4] is “active; positive”.
Consider `c1ccc2c(c1)-c1cc3ccccc3c3cc4ccccc4c-2c13`, for which the mutagenic call reads like this: (Test System: AMES SALMONELLA TYPHIMURIUM, Strain/Indicator: TA100, Metabolic Activation: MOUSE, LIVER, S-9, 3-METHYLCHOLANTHRENE, Method: STANDARD PLATE) “active; positive”; (Test System: AMES SALMONELLA TYPHIMURIUM, Strain/Indicator: TA100, Metabolic Activation: RAT, LIVER, S-9, 3-METHYLCHOLANTHRENE, Method: STANDARD PLATE) “active; positive”; (Test System: HUMAN H1A1V2 CELLS, Strain/Indicator: TK LOCUS, Metabolic Activation: NONE, Method: SUSPENSION/PLATE) “active; positive”.
With `O[C@H]1[C@H]2O[C@H]2C=C[C@@H]1O`, the mutagenic call by setting is: (Test System: AMES SALMONELLA TYPHIMURIUM, Strain/Indicator: TA97, Metabolic Activation: NONE, Method: PREINCUBATION) “inactive; negative”; under setting [1], “inactive; negative”; (Test System: AMES SALMONELLA TYPHIMURIUM, Strain/Indicator: TA1535, Metabolic Activation: NONE, Method: PREINCUBATION) “active; positive”.
